# Reference: patent US20090304663A1, “USE OF GSK-3 INHIBITORS FOR THE TREATMENT OF PROSTATE CANCER” (IMPERIAL INNOVATIONS LIMITED, priority 2004, published 2009)
# Entries after “also recorded” stand apart in the source; their conditions may differ. Like-named read-outs stand apart in the source and are kept apart here.
# Key:
# GSK-3 = settings: cited from earlier work
# [1] = system: inositol monophosphatases; settings: in words; cited from earlier work
# AR protein = AR protein level by western blotting in CWR-R1 cells; assay type: cell-based; settings: 5 μM SB216763 or 20 μM SB415286, 24 h, western blot
# Experimental: FIG. 6: Inhibition of GSK-3 leads to a reduction in AR protein levels. […] Western blots of whole cell extracts were probed for AR (upper panels) and reprobed for γ-tubulin as an internal loading control (lower panels).
# Cells were grown to 50-70% confluence in 100 mm dishes or 6-well plates. Lysates were obtained using the following steps: Cells were rinsed in cold TBS, lysed in modified RIP A buffer (0.5% deoxycholate, 1% Triton X-100, 20 mM Tris pH 8.0, 0.1% SDS, 100 mM NaCl, 50 mM NaF) or Nonidet P-40 buffer (1% NP-40, 20 mM Tris pH 8.0, 150 mM NaCl, 50 mM NaF) for 10 min and centrifuged for 12 min at 15,000×g. Cell extracts were then mixed with an equal volume of SDS sample buffer (Sigma Aldrich) and heated to 95° C. for 3 min. For immunoprecipitation (IP) assays in transfected COS7 cells, cell extracts were prepared using NP-40 lysis buffer, incubated with primary antibody for 1 h on ice. This was followed by 30 min incubation with 20 μl protein A/G-agarose (Cambridge Biosciences) on a rotating wheel in the cold room. After 4 washes in lysis buffer and 1 wash in TBS, the beads were resuspended in 10 μl of SDS sample buffer and heated as above. […]
# CWR-R1 cells = test: cell growth assay, CWR-R1 cells; assay type: cell-based; settings: for CWR-R1 cell growth (number of cells): 5 μM SB216763 or 20 μM SB415286, up to 6 days
# Experimental: (a) CWR-R1 cells were grown in the presence of carrier (ut). […] The experiment was done twice in triplicate and the error bars indicate standard deviation. […] The experiment was done in triplicate and the error bars indicate standard deviation. […] The number of cells was counted after 72 h (or after 5 days for LNCaP cells). Experiments were done in triplicate and the error bars indicate standard deviation. […] Cell growth assays were conducted according to Gregory et al, (2001). Briefly, cells (1.5×10^5/well) were plated in 12-well plates (three wells were used for each condition) and allowed to attach overnight. […] Cells were collected by trypsinisation at the indicated times and were counted using a Coulter Counter or using a haemocytometer.
# [2] = system: AR transcriptional activity; test: AR transcriptional activity, MMTV-Luciferase reporter in CWR-R1 cells; assay type: cell-based
# PC3 cells = test: cell growth assay, PC3 cells; assay type: cell-based; settings: 5 μM SB216763, normal growth medium, 72 h
# Experimental: (§1) The number of cells was counted after 72 h (or after 5 days for LNCaP cells). Experiments were done in triplicate and the error bars indicate standard deviation. […] Cell growth assays were conducted according to Gregory et al, (2001). Briefly, cells (1.5×10^5/well) were plated in 12-well plates (three wells were used for each condition) and allowed to attach overnight. […] Cells were collected by trypsinisation at the indicated times and were counted using a Coulter Counter or using a haemocytometer.
# 22Rv1 cells = test: cell growth assay, 22Rv1 cells; assay type: cell-based
# [3] = system: β-catenin/Tcf transcriptional activity; test: β-catenin/Tcf transcriptional activity, pOT-Luciferase reporter in CWR-R1 cells; assay type: cell-based; settings: 20 μM SB415286 or 5 μM SB216763, 24 h, normal growth medium
# LNCaP cells = test: cell growth assay, LNCaP cells; assay type: cell-based; settings: 5 μM SB216763, hormone-depleted medium with 1 nM R1881, 5 days
# Experimental: as §1
# DU145 cells = test: cell growth assay, DU145 cells; assay type: cell-based; settings: 5 μM SB216763, normal growth medium, 72 h
# Experimental: as §1
# human GSK-3 = settings: cited from earlier work
# [4] = system: panel of 79 commonly studied protein kinases, including several PKC isozymes; settings: in words; cited from earlier work
# [5] = CWR-R1 cells, 10 nM R1881, 20 μM SB415286 or 5 μM SB216763, 24 h
compound,measurement,setting,value
"[Cl-].[Li+] [Lithium chloride, lithium chloride]",IC50 value,GSK-3; in words,high
same,inhibition of inositol monophosphatases relative to GSK-3,[1],to a similar extent
O=C1NC(=O)C(c2ccccc2[N+](=O)[O-])=C1Nc1ccc(O)c(Cl)c1 [SB415286],protein level of AR,AR protein,reduced
same,CWR-R1 cell growth (number of cells),CWR-R1 cells,repressed
same,dose dependence of inhibitory effects on CWR-R1 cell growth,"CWR-R1 cells; up to 50 μM, data not shown",increased with dose up to the maximal dose tested
same,AR transcriptional activity,[2]; [5],reduced
Cc1cc(Nc2nc(-c3ccccc3)nc3ccccc23)n[nH]1 [5-Methyl-1H-pyrazol-3-yl)-(2-phenylquinazolin-4-yl)amine],Ki,GSK-3; ATP-binding site inhibitor,24 nM
Cn1cc(C2=C(c3ccc(Cl)cc3Cl)C(=O)NC2=O)c2ccccc21 [SB216763],PC3 cell growth (number of cells),PC3 cells,did not significantly affect
same,protein level of AR,AR protein,reduced
same,growth of 22Rv1 cells (number of cells),"22Rv1 cells; 5 μM SB216763, hormone-depleted medium with 1 nM R1881, 72 h",significantly reduced
same,R1881-stimulated growth of 22Rv1 cells,"22Rv1 cells; 5 μM SB216763, hormone-depleted medium with R1881, 72 h",blocked
same,hormone-independent proliferation of 22Rv1 cells,"22Rv1 cells; 5 μM SB216763, hormone-depleted medium, absence of hormone, 72 h",inhibited
same,β-catenin/Tcf-dependent transcriptional activity,[3],increased
same,growth of CWR-R1 cells (number of cells),"CWR-R1 cells; 5 μM SB216763, normal growth medium, 72 h",significantly reduced
same,CWR-R1 cell growth (number of cells),CWR-R1 cells,repressed
same,concentration at which inhibitory effects on cell growth were maximal (optimal dose),"CWR-R1 cells; CWR-R1 cells, 72 h, complete growth medium",3 µM
same,AR transcriptional activity,[2]; [5],reduced
same,growth of LNCaP cells (number of cells),LNCaP cells,significantly reduced; also recorded: weakly inhibited
same,DU145 cell growth (number of cells),DU145 cells,did not significantly affect
CHIR 98014,Ki,human GSK-3,0.87 nM
"C[C@]1(O)CC[C@H]2[C@@H]3CCC4=CC(=O)CCC4=C3C=C[C@@]21C [R1881, methyltrienolone]",growth of 22Rv1 cells,"22Rv1 cells; hormone-depleted medium, 10^−12 M or 10^−9 M R1881, 72 h",stimulated
same,AR transcriptional activity,[2],increase
"O=C1NC(=O)C(c2cn(CCCO)c3ncccc23)=C1c1cnccn1 [3-(1-(3-Hydroxypropyl)-1H-pyrrolo[2,3-b]pyridin-3-yl]-4-pyrazin-2-yl-pyrrole-2,5-dione]",inhibition of the kinase panel,[4],minimally inhibits
